Source: patent US11089805B2, “Mucosal immunomodulator” (Yamada Bee Company, Inc., priority 2016, dated 2021)

Experiments:
[1] = system: anti-Fetuin, anti-poliovirus and anti-influenza virus IgA antibody titer in the feces; parameters: species or system cynomolgus monkeys (Macaca fascicularis); conditions: cynomolgus monkey, in vivo
Caco-2 cells [2] = assay: M-cell differentiation induction test, in vitro (FACS analysis of GP2 expression); conditions: for effect on expression of GP2 (in words): Caco-2 cells, 100 μM, 3 days, FACS; for fold induction at 100 µM: Homo sapiens, Caco-2, 72 h, read-out: GP2 Expression Level (relative value when DMSO = 1)
Caco-2 cells [3] = assay: Morphological analysis by electron microscope; assay type: cell-based, human; conditions: Caco-2 single-layer film in Transwell, final concentration 100 μm, apical side, 3 days
Text: M cells generally have the morphological characteristics that microvilli on the apical side are shorter than those of epithelial cells in the vicinity thereof.

| SMILES | anti-Fetuin IgA antibody titer in the feces [1] | anti-influenza virus IgA antibody titer in the feces [1] | anti-poliovirus IgA antibody titer in the feces [1] | effect on expression of GP2 (in words) (Caco-2 cells [2]) | fold induction at 100 µM (Caco-2 cells [2]) | cell morphology (microvilli) by electron microscope (Caco-2 cells [3]) |
| --- | --- | --- | --- | --- | --- | --- |
| O=C(O)CCCCCCCCCO [10-Hydroxydecanoic Acid, 10-hydroxydecanoic acid] | increases | increases | increases | induced the expression of GP2 | 2.63 | cells with short microvilli were observed |
| C[C@@H](O)CCCCC/C=C/C(=O)O [Formula (4), (2E,9R)-9-hydroxy-2-decenoic acid] | – | – | – | induced the expression of GP2 | 1.72 | – |
| COC(=O)/C=C/CCCCC[C@@H](O)CO [Formula (5), (2E,9R)-methyl-9,10-dihydroxy-2-decenoate] | – | – | – | intensely induced the expression of GP2 | 2.46 | – |
| O=C(O)/C=C/CCCCCCC[C@@H](O)CO [Formula (6), (2E,11R)-11,12-dihydroxy-2-dodecenoic acid] | – | – | – | intensely induced the expression of GP2 | 4.03 | – |
| O=C(O)CC(O)CCCCCCCO (stereo not shown) [Formula (7), (2E)-3,10-dihydroxy-decanoic acid] | – | – | – | induced the expression of GP2 | 1.48 | – |
| O=C(O)CCCCCCCCC(=O)O [Formula (8), sebacic acid] | – | – | – | induced the expression of GP2 | 1.45 | – |
| O=C(O)/C=C/CCC[C@@H](O)CO [Formula (9), (2E,7R)-7,8-dihydroxy-2-octenoic acid] | – | – | – | suppressed the expression of GP2 | 0.75 | – |
| O=C(O)/C=C\CCCCC[C@@H](O)CO [Formula (10), (2Z,9R)-9,10-dihydroxy-2-decenoic acid] | – | – | – | suppressed the expression of GP2 | 0.83 | – |
| CC(=O)OCCCC/C=C/C(=O)O [Formula (11), (2E)-7-acetoxy-2-heptenoic acid] | – | – | – | intensely suppressed the expression of GP2 | 0.16 | – |
| CC(=O)OC[C@@H](CCCCC/C=C/C(=O)O)OC(C)=O [Formula (12), (2E,9R)-9,10-diacetoxy-2-decenoic acid] | – | – | – | intensely suppressed the expression of GP2 | 0.48 | – |
| O=C(O)/C=C/CCCCC[C@H](O)CO [Formula (13), (2E,9S)-9,10-dihydroxy-2-decenoic acid] | – | – | – | intensely suppressed the expression of GP2 | 0.39 | – |
| CCCCCC(O)C(O)/C=C/C(O)CCCCCCCC(=O)O [Formula (14), 9(S),12(S),13(S)-trihydroxy-10(E)-octadecenoic acid] | – | – | – | suppressed the expression of GP2 | 0.74 | – |
